The assay has as its system multiresistant Dd2 strain of Plasmodium falciparum. Description: Antiplasmodial activity against Dd2 strain of Plasmodium falciparum ([8-3H]hypoxanthine incorporation). To be noted: 66 h, P. falciparum Dd2, 48 h + 18 h with [8-3H]hypoxanthine, 50% parasite growth inhibition, read-out: Antiplasmodia activity (IC50 class). In kind it is cell-based. The protocol: For the determination of the antiplasmodial activity of the compounds described above, the multiresistant Dd2 strain of Plasmodium falciparum was used. The incorporation of [8-^3H]hypoxanthine into the parasitic nucleic acids was measured. The plasmodia were incubated at 0.3% parasitaemia and an erythrocyte haematocrit of 2.5% in the presence of different concentrations of the compounds in a final volume of 200 μl. The medium employed was RPMI 1640 which contained 10% of heat-treated human serum and 3 mg/l of gentamycin. In the incubations, the concentrations of the compounds varied from 0.001 to 100 μM. After 48 h, each batch was treated with 50 μl of [8-^3H]hypoxanthine (1 mCi/ml) and incubated for a further 18 h. The cells were filtered off, washed and suspended in 20 μl of scintillation fluid. The radioactive hypoxanthine absorbed by the parasites was then quantified using a scintillation counter. The results were presented graphically and the IC50 value was determined using a fitting function. The value IC50, the ‘inhibition constant’, indicates the value in μMol/l at which 50% parasite growth inhibition occurs (R. E. Desjardins, et al., Antimicrobiol. Agent Chemother. 16, pp. 710-718, 1979; J. D. Chulay, et al., Exp. Parasitol. 55, pp. 138-146, 1983).
Regarding `N=C(c1cccc(NC(=O)Nc2ccc(S(N)(=O)=O)cc2)c1)N1CCNCC1` [Compound 3, 4-(3-(3-(imino(piperazin-1-yl)methyl)phenyl)ureido)benzenesulfonamide], the IC50 – broadly, the point on the concentration scale where inhibition reaches its midpoint – is at least 1000 nM.
For `CCCCN1CCN(C(=N)c2cccc(NC(=O)Nc3ccc(S(=O)(=O)NCc4ccccc4)cc3)c2)CC1` [Compound 36, N-benzyl-4-(3-(3-((4-butylpiperazin-1-yl)(imino)methyl)phenyl)ureido)benzenesulfonamide] the value was 210 to 990 nM; for `COC(=O)N1CCN(C(=N)c2cccc(NC(=O)Nc3ccc(S(=O)(=O)Nc4ccc(S(N)(=O)=O)cc4)cc3)c2)CC1` [Compound 24, methyl 4-(imino(3-(3-(4-(N-(4-sulfamoylphenyl)sulfamoyl)phenyl)ureido)phenyl)methyl)piperazine-1-carboxylate], at least 1000 nM; for `N=C(c1cccc(NC(=O)Nc2ccc(S(=O)(=O)NCc3ccc(S(N)(=O)=O)cc3)cc2)c1)N1CCCC1CN1CCCC1` (stereo not drawn) [Compound 50, 4-(3-(3-(imino(2-(pyrrolidin-1-ylmethyl)pyrrolidin-1-yl)methyl)phenyl)ureido)-N-(4-sulfamoylbenzyl)benzenesulfonamide], 20 to 200 nM.
Take `CN1CCN(C(=N)c2cccc(NC(=O)Nc3ccc(S(=O)(=O)c4ccc([N+](=O)[O-])cc4)cc3)c2)CC1` [Compound 8, 1-(3-(imino(4-methylpiperazin-1-yl)methyl)phenyl)-3-(4-(4-nitrophenylsulfonyl)phenyl)urea]: the IC50 is at least 1000 nM.
For `N=C(c1cccc(NC(=O)Nc2ccc(S(=O)(=O)NCc3ccc(S(N)(=O)=O)cc3)cc2)c1)N1CCC(O)CC1` [Compound 48, 4-(3-(3-((4-hydroxypiperidin-1-yl)(imino)methyl)phenyl)ureido)-N-(4-sulfamoylbenzyl)benzenesulfonamide], the half-maximal inhibitory concentration (IC50) was in the range of 20 to 200 nM.
For `CCCOC(=O)N1CCN(C(=N)c2cccc(NC(=O)Nc3ccc(S(=O)(=O)NCc4ccc(S(N)(=O)=O)cc4)cc3)c2)CC1` [Compound 62, propyl 4-(imino(3-(3-(4-(N-(4-sulfamoylbenzyl)sulfamoyl)phenyl)ureido)phenyl)methyl)piperazine-1-carboxylate] the value was below 20 nM; for `N=C(c1cccc(NC(=O)Nc2ccc(S(=O)(=O)c3ccc(Br)cc3)cc2)c1)N1CCC(CO)CC1` [Compound 12, 1-(4-(4-bromophenylsulfonyl)phenyl)-3-(3-((4-(hydroxymethyl)piperidin-1-yl)(imino)methyl)phenyl)urea], at least 1000 nM; for `N=C(c1cccc(NC(=O)Nc2ccc(S(=O)(=O)NCc3ccc(S(N)(=O)=O)cc3)cc2)c1)N1CCC(C(N)=O)CC1` [Compound 33, 1-(imino(3-(3-(4-(N-(4-sulfamoylbenzyl)sulfamoyl)-phenyl)ureido)phenyl)methyl)piperidine-4-carboxamide], 20 to 200 nM.
To `N=C(c1cccc(NC(=O)Nc2ccc(S(=O)(=O)NCc3ccc(S(N)(=O)=O)cc3)cc2)c1)N1CCN(CC2OCCO2)CC1` [Compound 67, 4-(3-(3-((4-((1,3-dioxolan-2-yl)methyl)piperazin-1-yl)(imino)methyl)phenyl)ureido)-N-(4-sulfamoylbenzyl)benzene sulfonamide] belongs 20 to 200 nM; to `N=C(c1cccc(NC(=O)Nc2ccc(S(=O)(=O)NCc3ccc(S(N)(=O)=O)cc3)cc2)c1)N1CCC(=O)CC1` [Compound 27, 4-(3-(3-(imino(4-oxopiperidin-1-yl)methyl)phenyl)ureido)-N-(4-sulfamoylbenzyl)benzenesulfonamide], 210 to 990 nM; to `CCCCN1CCN(C(=N)c2cccc(NC(=O)Nc3ccc(S(=O)(=O)NCc4c(F)ccc(F)c4F)cc3)c2)CC1` [Compound 35, 4-(3-(3-((4-butylpiperazin-1-yl)(imino)methyl)phenyl)ureido)-N-(2,3,6-trifluorobenzyl)benzenesulfonamide], 210 to 990 nM.
